Measurements reported in US9429582B2, “Tyrosine-phosphorylated WBP2, a novel cancer target and biomarker” (National University of Singapore, priority 2010, dated 2016).

Experiments:
WBP2 = assay: Immunoblot of WBP2 expression in drug-treated WBP2-Y192-231E mutant-expressing MCF7; assay type: cell-based, human; settings: Y192-231E-expressing MCF7; 15 μM FH535; day 2-4 post-treatment
Protocol: A: Whole cell lysates from vector, WBP2-WT, WBP2-Y192-231E mutant and WBP2-Y192-231F mutant expressing MCF7 or Y192-231E mutant expressing MCF7 with WBP2 knockdown were used for IB analysis with antibodies indicated. B: Vector, WBP2-WT, WBP2-Y192-231E mutant or WBP2-Y192-231F mutant-expressing MCF7 were co-transfected with TOPFlash (top panel) or ERE-Luciferase (bottom panel) reporter construct. For cells co-transfected ERE-luciferase, they were either left alone or stimulated with 50 ng/ml Wnt3a ligand for 16 hrs. TCF/ERα luciferase activities in various conditions were then assayed. **P<0.01, ***P<0.001, Student's t-test (2-tailed). […] Cell numbers were measured. […]
Whole cell lysates from vector, WBP2-WT, WBP2-Y192-231E mutant and WBP2-Y192-231F mutant expressing MCF7 (A) or Y192-231E mutant expressing MCF7 with WBP2 knockdown (B) were used for IB analysis with antibodies indicated. Their expression levels were quantified in three independent experiments and the averages were presented relative to actin. […] TCF(C)/ER[…](D) luciferase activities in various conditions were then assayed and analyzed in relative to untreated vector control. **P<0.01, ***P<0.001, Student's t-test (2-tailed). […] Cell numbers were measured daily and compared in relative to vehicle treated vector-expressing cells on Day 0. […] Cell numbers were measured and compared in relative to vehicle-treated cells. […]

[1] = tested on: WBP2-Y192-231E mutant-expressing MCF7; assay: Cell proliferation (MTS / cell numbers) of WBP2-Y192-231E mutant-expressing MCF7; assay type: cell-based, human
Protocol: A: Whole cell lysates from vector, WBP2-WT, WBP2-Y192-231E mutant and WBP2-Y192-231F mutant expressing MCF7 or Y192-231E mutant expressing MCF7 with WBP2 knockdown were used for IB analysis with antibodies indicated. B: Vector, WBP2-WT, WBP2-Y192-231E mutant or WBP2-Y192-231F mutant-expressing MCF7 were co-transfected with TOPFlash (top panel) or ERE-Luciferase (bottom panel) reporter construct. For cells co-transfected ERE-luciferase, they were either left alone or stimulated with 50 ng/ml Wnt3a ligand for 16 hrs. TCF/ERα luciferase activities in various conditions were then assayed. **P<0.01, ***P<0.001, Student's t-test (2-tailed). C: Vector or WBP2-Y192-231E mutant-expressing MCF7 were treated with indicated concentrations of Tamoxifen(Tam) and/or FH535. Cell numbers were measured. D: Whole cell lysates from WBP2-Y192-231E mutant-expressing MCF7 treated with 2 μM Tam and/or 15 μM FH5353 were harvested at day 2-4 post-treatment and used for IB analysis with antibodies indicated.
Effect of knockdown of E2F1 and E2F3 on MCF7 cells overexpressing WBP2-Y192-231E. A. MCF7 cells expressing WBP2-Y192-231E were transfected with indicated siRNAs and knockdown efficiency was confirmed using western blotting. B. Cells were co-transfected with indicated siRNAs and E2F reporter plasmid and harvested for luciferase assay after 48 hours. Luciferase readings were normalized against constitutive TK promoter renilla luciferase readings. C. Cells were transfected with indicated siRNAs and BrdU incorporation assay was performed. Percentages of BrdU positive cells relative to control siRNA treated cells were plotted as bar charts. D. Cells were transfected with indicated siRNAs. MTS assay was performed on day 3. Percentages of cell proliferation relative to control siRNA treated cells were plotted as bar charts.
Whole cell lysates from vector, WBP2-WT, WBP2-Y192-231E mutant and WBP2-Y192-231F mutant expressing MCF7 (A) or Y192-231E mutant expressing MCF7 with WBP2 knockdown (B) were used for IB analysis with antibodies indicated. Their expression levels were quantified in three independent experiments and the averages were presented relative to actin. Representative blots (order in lanes from left to right: vector, WBP2, Y192-231E, Y192F) were presented as insets to the bar graphs. **P<0.01, ***P<0.001, Student's t-test (2-tailed) relative to vector. Vector, WBP2-WT, WBP2-Y192-231E mutant or WBP2-Y192-231F mutant-expressing MCF7 were cotransfected with TOPFlash(C) or ERE-Luciferase(D) reporter construct. For cells co-transfected ERE luciferase, they were either left alone or stimulated with 50 ng/ml Wnt3a ligand for 16 hrs. TCF(C)/ER[…](D) luciferase activities in various conditions were then assayed and analyzed in relative to untreated vector control. **P<0.01, ***P<0.001, Student's t-test (2-tailed). E: Vector or WBP2-Y192-231E mutant-expressing MCF7 were treated with indicated concentrations of 2 µM tamoxifen (Tam) and/or 15 µM FH535 for 4 days. Cell numbers were measured daily and compared in relative to vehicle treated vector-expressing cells on Day 0. F: Vector or WBP2-Y192-231E mutant-expressing MCF7 were treated with indicated concentrations (0-50 µM) of FH535 for 2 days. Cell numbers were measured and compared in relative to vehicle-treated cells. Their […] were analyzed statistically with SPSS 13.0. G: Whole cell lysates from WBP2-Y192-231E mutant-expressing MCF7 treated with 2 μM Tam and/or 15 μM FH5353 were harvested at day 2-4 post-treatment and used for IB analysis with antibodies indicated. H: Vector or WBP2-Y192-231E mutant-expressing MCF7 were treated with indicated concentrations of 100 nM fulvestrant and/or 15 µM FH535 for 4 days. Cell numbers were measured on day 2 and day 4 and compared in relative to vehicle-treated control at each day (Top Panel). These treated cells were harvested for IB analysis with antibodies indicated (Bottom Panel). […]

Cc1cc([N+](=O)[O-])ccc1NS(=O)(=O)c1cc(Cl)ccc1Cl [FH535]
WBP2 expression (WBP2): without affecting
blocking of phospho-WBP2-mediated cancer cell growth compared with tamoxifen and fulvestrant [1]: more pronouncedly
sensitivity of Y192-231E-expressing MCF7 to FH535-mediated growth inhibition compared with vector-expressing MCF7 ([1]; 0-50 μM FH535 for 2 days): more sensitive
inhibition of growth / reduction of proliferation ([1]; MCF7 cells expressing Y192-231E mutant, day 4, 100 nM fulvestrant or 15 μM FH535): ~65%
growth inhibition, dose dependence ([1]; Y192-231E stable transfectant, 0-50 μM FH535 for 2 days): dose dependent growth inhibition
growth rate ([1]; Y192-231E-expressing MCF7, FH535 alone (15 μM), to close to vector-expressing MCF7 at day 3): significantly reduced
